Assay results: patent publication US20190083420A1, “METHODS OF USING (2R, 6R)-HYDROXYN[…] (2S, 6S)-HYDROXYN[…] THE TREATMENT OF DEPRESSION, ANXIETY, ANHEDONIA, FATIGUE, SUICIDAL IDEATION, AND POST TRAUMATIC STRESS DISORDERS” (The Uinited States of America, as represented by the …, priority 2016, published 2019)
Entries after “also recorded” stand apart in the source; their conditions may differ.

Legend:
[1] = test system: male CD-1 mice; test: Forced-swim test (FST); format: in vivo; details: for antidepressant effect in the FST (immobility time): i.p.
Source text: Male CD-1 mice (8-10 weeks old, Charles River Laboratories, Mass., USA) were housed in groups of four-five per cage with a constant 12-hour light/dark cycle (lights on/off at 07:00/19:00). Food and water were available ad libitum. Mice acclimatized to the new environment for seven days prior to the start of the experiments. For the whole-cell NMDA current electrophysiological recordings, male Sprague-Dawley rats (housed three per cage; Charles River, Wilmington, Mass.) were used. EPSC recording were done from rats at postnatal day 24-25. All experimental procedures were approved by the University of Maryland, Baltimore Animal Care and Use Committee and were conducted in full accordance with the National Institutes of Health Guide for the Care and Use of Laboratory Animals.
Mice were tested in the FST 1 hour and/or 24 hours post-injection. During the FST, mice were subjected to a 6-min swim session in clear Plexiglass cylinders (30 cm height×20 cm diameter) filled with 15 cm of water (23±1° C.). The FST was performed in normal light conditions (800 Lux). Sessions were recorded using a digital video-camera. Immobility time, defined as passive floating with no additional activity other than that necessary to keep the animal's head above water, was scored for the last 4 min of the 6-min test by a trained observer blind to the treatment.
All drugs were dissolved in 0.9% saline, and administered intraperitoneally (i.p.) in a volume of 7.5 ml/kg of body mass. Corticosterone (4-pregnen-11β, 21-diol-3, 20-dione 21-hemisuccinate; Steraloids, Newport, R.I., USA) was dissolved in tap water. For the electrophysiology recordings, test drugs were diluted in artificial cerebrospinal fluid (AC SF).

[2] = test system: Male C57BL/6J mice; test: Chronic social defeat stress and social interaction/avoidance test; format: in vivo; details: for locomotor activity and total compartmental crosses in the social interaction test: following chronic social defeat stress; for reversal of social interaction deficits / social avoidance induced by chronic social defeat stress: single i.p. injection, re-test 24 hours following treatment
Method: Male C57BL/6J mice underwent a 10-day chronic social defeat stress paradigm. Briefly, experimental mice were introduced to the home cage (43 cm length×11 cm width×20 cm height) of a resident aggressive retired CD-1 breeder, prescreened for aggressive behaviors, for 10 min. Following this physical attack phase, mice were transferred and housed in the opposite side of the resident's cage divided by a Plexiglas perforated divider, in order to maintain continuous sensory contact. This process was repeated for 10 days. Experimental mice were introduced to a novel aggressive CD-1 mouse each day. On day 11, test mice were screened for susceptibility in a social interaction/avoidance choice test. The social interaction apparatus consisted of a rectangular three-chambered box (mouse conditioned-place preference chamber; Stoelting Co., Wood Dale, Ill., USA), see FIG. 7b) comprised of two equal sized end-chambers and a smaller central chamber. The social interaction/avoidance choice test consisted of two 5-min phases. During the habituation phase, mice explored the empty apparatus. During the test phase, two small wire cages (Galaxy Cup, Spectrum Diversified Designs, Inc., Streetsboro, Ohio, USA), one containing a “stranger” CD-1 mouse and the other one empty, were placed in the far corners of each chamber. The time spent interacting (nose within close proximity of the cage) with the “stranger” mouse versus the empty cage was analysed using TopScan video tracking software (CleverSys, Reston, Va.). Locomotor activity (total distance moved over 5 min) and number of total crosses into and out of the central chamber were also measured. The social interaction ratio was calculated by dividing the time spent interacting with the “stranger” by the time spent with the empty cage. Mice having a social interaction ratio higher than 1.0 were considered resilient and mice with a social interaction ratio lower than 1.0 were considered susceptible. On day 13 resilient and susceptible mice received an i.p. injection of either saline, (R,S)-KET (20 mg/kg; chosen based upon dose previously effective in C57BL/6J mice^31), MK-801 (0.1 mg/kg) or (2R,6R)-HNK (20 mg/kg). Mice were re-tested for social interaction/avoidance on […] (24 hours following treatment).

[3] = test system: eEF2; test: Western blot of synaptoneurosomes, eEF2 phosphorylation; format: in vivo, mice; details: for phosphorylation of eEF2: hippocampus, 1 hour and 24 hours post-injection, 10 mg/kg; for eEF2 / phosphorylated eEF2: prefrontal cortex
Method: To purify synaptoneurosomes, mouse prefrontal cortex or hippocampus were dissected and homogenized in Syn-PER Reagent (ThermoFisher Scientific, Waltham, Mass., USA; Cat #87793) with 1× protease and phosphatase inhibitor cocktail (ThermoFisher Scientific, Waltham, Mass., USA; Cat #78440). The homogenate was centrifuged for 10 min at 1,200×g at 4° C. The supernatant was centrifuged at 15,000×g for 20 min. After centrifugation, the supernatant the pellet (synaptosomal fraction) was re-suspended and sonicated in N-PER Neuronal Protein Extraction Reagent (ThermoFisher Scientific, Waltham, Mass., USA; Cat #87792). For total homogenous tissue lysates, mouse prefrontal cortex or hippocampus were homogenized and sonicated in N-PER Neuronal Protein Extraction Reagent with 1× protease & phosphatase inhibitor cocktail) Protein concentration was determined via the BCA protein assay kit (ThermoFisher Scientific, Waltham, Mass., USA; Cat #23227).
For western blotting, equal amount of proteins (10-40 μg as optimal for each antibody) for each sample were loaded into NuPage 4-12% Bis-Tris gel for electrophoresis. Nitrocellulose membranes with transferred proteins were blocked with 5% milk in TBST (TBS+0.1% Tween-20) for 1 hour and kept with primary antibodies overnight at 4° C. The following primary antibodies were used: phospho-eEF2 (Cell Signaling Technology, Danvers, Mass., USA; Cat #2331), total eEF2 (Cell Signaling Technology, Danvers, Mass., USA; Cat #2332), phospho-mTOR (Cell Signaling Technology, Danvers, Mass., USA; Cat #2971), total mTOR (Cell Signaling Technology, Danvers, Mass., USA; Cat #2983), GluR1 (Cell Signaling Technology, Danvers, Mass., USA; […]), GluR2 (Cell Signaling Technology, Danvers, Mass., USA; Cat #13607), BDNF (Santa Cruz Biotechnology, Dallas, Tex., USA; Cat # sc-546), and GAPDH (Abcam, Cambridge, Mass., USA; Cat # ab8245). The next day, blots were washed three times in PBST and incubated with horseradish peroxidase conjugated anti-mouse or anti-rabbit secondary antibody (1:5000 to 1:10000) for 1 hour. After final three washes with TBST, bands were detected using enhanced chemiluminescence (ECL) with the Syngene Imaging System (G:Box ChemiXX9). After imaging, the blots then were incubated in the stripping buffer (ThermoFisher Scientific, Waltham, Mass., USA; Cat #46430) for 10-15 min at room temperature followed by three time washes with TBST. The stripped blots were washed in blocking solution for 1 hour and incubated with the primary antibody directed against total levels of the respective protein or GAPDH for loading control. Densitometric analysis of phospho- and total immunoreactive bands for each protein was conducted using Syngene's GenTools software Immunoreactivity was normalized to the saline treated control group for each protein.

[4] = 1- and 24-hours post-injection, times not separated
[5] = 24 hours post-injection (sustained)

Row | SMILES | antidepressant effect in the FST (immobility time) [1, 4] | antidepressant effect in the FST (immobility time) ([1]; 1 hour post-injection (acute)) | antidepressant effect in the FST (immobility time) [1, 5] | antidepressant potency in the FST, female versus male mice ([1]; female mice compared to males) | locomotor activity and total compartmental crosses in the social interaction test [2] | reversal of social interaction deficits / social avoidance induced by chronic social defeat stress [2] | phosphorylation of eEF2 [3] | phosphorylation of eEF2 ([3]; listed as (R,S)-ketamine) | eEF2 / phosphorylated eEF2 ([3]; listed as (R,S)-KET) | phosphorylation of eEF2 ([3]; listed as (2R,6R)-hydroxynorketamine) | eEF2 / phosphorylated eEF2 [3]
1 | CNC1(c2ccccc2Cl)CCCCC1=O (racemic) [ketamine, (R,S)-ketamine, reference compound] | acute and long-lasting dose-dependent antidepressant effects | antidepressant responses of both ketamine and MK-801 observed acutely | showed sustained effects following 24 hours | greater antidepressant potency of ketamine in female mice | without affecting | reversed social defeat stress-induced social avoidance behaviors | induced a decrease in eEF2 phosphorylation | decrease phosphorylation of eEF2 | did not alter |  | 
2 | N[C@@]1(c2ccccc2Cl)CCC[C@@H](O)C1=O [(2R,6R)-HNK, (2R,6R)-2-amino-2-(2-chlorophenyl)-6-hydroxycyclohexanone] | greater potency and longer-lasting antidepressant-like effects; also recorded: dose-dependent antidepressant-like effects; also recorded: dose-dependent antidepressant action |  | more potent antidepressant effects |  | not associated with changes | reversed social interaction deficits |  |  |  | decrease phosphorylation of eEF2 | did not alter
